{
  "source": "ChEMBL document CHEMBL4376829",
  "about": "“Discovery and biological evaluation of vinylsulfonamide derivatives as highly potent, covalent TEAD autopalmitoylation inhibitors” (Eur J Med Chem, 2019)",
  "key": {"[1]": {"target": "T1, Transcriptional enhancer factor TEF-3 (Homo sapiens, UniProt Q15561)", "T1 sequence (Q15561 whole entry, the tested form may be a part)": "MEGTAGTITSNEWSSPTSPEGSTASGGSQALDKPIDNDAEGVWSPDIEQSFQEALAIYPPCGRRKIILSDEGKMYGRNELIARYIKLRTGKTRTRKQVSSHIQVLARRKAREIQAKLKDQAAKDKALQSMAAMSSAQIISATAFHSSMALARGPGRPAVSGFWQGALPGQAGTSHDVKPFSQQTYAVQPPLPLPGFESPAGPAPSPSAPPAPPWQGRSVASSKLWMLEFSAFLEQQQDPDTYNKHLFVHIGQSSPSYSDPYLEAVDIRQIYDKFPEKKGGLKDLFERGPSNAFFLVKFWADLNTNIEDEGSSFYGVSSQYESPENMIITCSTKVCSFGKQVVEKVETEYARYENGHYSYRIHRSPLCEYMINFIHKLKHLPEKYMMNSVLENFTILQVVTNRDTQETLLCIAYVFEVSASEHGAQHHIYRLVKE", "experiment": "(§1) Inhibition of N-terminal His6 tagged human TEAD4-YBD (217 to 434 residues) expressed in Escherichia coli C43 (DE3) cells assessed as reduction in autopalmitoylation at 800 nM preincubated for 2 hrs followed by palmitoyl alkyne-coenzyme A addition and measured after 30 mins by immunoblot analysis relative to control"}, "[2]": {"target": "T1, Transcriptional enhancer factor TEF-3", "experiment": "as §1, with “200” for “800”, “mins” for “mins by”"}, "[3]": {"target": "T1, Transcriptional enhancer factor TEF-3", "experiment": "Inhibition of N-terminal His6 tagged human TEAD4-YBD (217 to 434 residues) expressed in Escherichia coli C43 (DE3) cells assessed as reduction in autopalmitoylation at 50 uM preincubated for 2 hrs followed by palmitoyl alkyne-coenzyme A addition and measured after 30 mins by immunoblot analysis"}, "[4]": {"target": "T1, Transcriptional enhancer factor TEF-3", "experiment": "Binding affinity to N-terminal His6 tagged human TEAD4-YBD (217 to 434 residues) expressed in Escherichia coli C43 (DE3) cells by SPR analysis"}, "[5]": {"target": "T1, Transcriptional enhancer factor TEF-3", "experiment": "Inhibition of N-terminal His6-tagged human TEAD4 YAP binding domain (217 to 434 residues) expressed in Escherichia coli C43 (DE3) cells assessed reduction in autopalmitoylation preincubated for 2 hrs followed by palmitoyl alkyne coenzyme A addition and measured after 30 mins by immunoblot analysis"}, "[6]": {"target": "T1, Transcriptional enhancer factor TEF-3", "experiment": "Binding affinity to N-terminal His6 tagged human TEAD4 (217 to 434 residues) expressed in Escherichia coli C43 (DE3) cells incubated for 30 mins by isothermal Titration Calorimetry"}, "[7]": {"target": "T1, Transcriptional enhancer factor TEF-3", "experiment": "Binding affinity to N-terminal His6 tagged human TEAD4 (217 to 434 residues) expressed in Escherichia coli C43 (DE3) cells at 200 uM by STD NMR spectral analysis"}, "[8]": {"target": "T1, Transcriptional enhancer factor TEF-3", "experiment": "Competitive binding affinity to N-terminal His6 tagged human TEAD4 (217 to 434 residues) expressed in Escherichia coli C43 (DE3) cells at 200 uM in presence of palmitoyl CoA by CPMG NMR spectral analysis"}, "[9]": {"target": "T1, Transcriptional enhancer factor TEF-3", "experiment": "Binding affinity to TEAD4 (unknown origin) assessed as change in melting temperature by fluorescence based thermal shift assay"}, "[10]": {"target": "T1, Transcriptional enhancer factor TEF-3", "experiment": "Binding affinity to TEAD4 (unknown origin) assessed as induction of protein folding by SYPRO-dye based thermal shift assay"}, "[11]": {"target": "T1, Transcriptional enhancer factor TEF-3", "experiment": "Binding affinity to TEAD4 (unknown origin) assessed as change in melting temperature at protein to compound ratio of 1:40 by SYPRO orange dye based thermal shift assay"}, "[12]": {"target": "T1, Transcriptional enhancer factor TEF-3", "experiment": "Binding affinity to N-terminal His6 tagged human TEAD4 (217 to 434 residues) expressed in Escherichia coli C43 (DE3) cells at 200 uM by CPMG NMR spectral analysis"}, "[13]": {"target": "T1, Transcriptional enhancer factor TEF-3", "experiment": "Binding affinity to TEAD4 (unknown origin) assessed as change in melting temperature at protein to compound ratio of 1:10 by SYPRO orange dye based thermal shift assay"}},
  "note": "Activity calls are given as the source filed them. No cut-off for these calls is given here.",
  "data": [
    {"smiles": "C=CS(=O)(=O)Nc1ccc(NC(=O)c2ccc3ccccc3c2)cc1", "values": [
      {"measurement": "inhibition", "setting": "[1]", "value": 35, "unit": "%"},
      {"measurement": "inhibition", "setting": "[2]", "value": 15.6, "unit": "%"}
    ]},
    {"smiles": "C=CS(=O)(=O)Nc1ccc(Cc2ccc3ccc(O)cc3c2)cc1", "values": [
      {"measurement": "inhibition", "setting": "[1]", "value": 82.5, "unit": "%"},
      {"measurement": "inhibition", "setting": "[2]", "value": 18.9, "unit": "%"}
    ]},
    {"smiles": "C=CS(=O)(=O)Nc1ccc(Cc2ccc3ccccc3c2)c(O)c1", "values": [
      {"measurement": "inhibition", "setting": "[1]", "value": 92.1, "unit": "%"},
      {"measurement": "inhibition", "setting": "[2]", "value": 44.3, "unit": "%"}
    ]},
    {"smiles": "C=CS(=O)(=O)Nc1ccc2ccccc2c1", "values": [
      {"measurement": "inhibition", "setting": "[1]", "value": 1.1, "unit": "%"},
      {"measurement": "inhibition", "setting": "[2]", "value": 8.4, "unit": "%"}
    ]},
    {"smiles": "C=CS(=O)(=O)Nc1ccc2c(c1)CCN(C(=O)c1ccccc1)C2", "values": [
      {"measurement": "inhibition", "setting": "[1]", "value": 25.4, "unit": "%"},
      {"measurement": "inhibition", "setting": "[2]", "value": 5.4, "unit": "%"}
    ]},
    {"smiles": "C=CS(=O)(=O)Nc1ccc(Cc2ccc3ccccc3c2)c(OC2CCNCC2)c1", "values": [
      {"measurement": "inhibition", "setting": "[1]", "value": 6.5, "unit": "%"},
      {"measurement": "inhibition", "setting": "[3]", "value": "Active"},
      {"measurement": "inhibition", "setting": "[2]", "value": 1.2, "unit": "%"}
    ]},
    {"smiles": "C=CS(=O)(=O)Oc1ccc(Oc2ccccc2)cc1", "values": [
      {"measurement": "inhibition", "setting": "[1]", "value": 94.8, "unit": "%"},
      {"measurement": "inhibition", "setting": "[2]", "value": 62.2, "unit": "%"}
    ]},
    {"smiles": "C=CS(=O)(=O)Nc1ccc(OCc2ccccc2)cc1", "values": [
      {"measurement": "inhibition", "setting": "[1]", "value": 52.5, "unit": "%"},
      {"measurement": "inhibition", "setting": "[2]", "value": 21, "unit": "%"}
    ]},
    {"smiles": "O=C(O)c1ccccc1Nc1cccc(C(F)(F)F)c1", "note": "[FLUFENAMIC ACID]", "values": [
      {"measurement": "Kd", "setting": "[4]", "value": 84, "unit": "µM"},
      {"measurement": "IC50", "setting": "[5]", "value": 54, "unit": "µM"},
      {"measurement": "inhibition", "setting": "[5]", "value": "Dose-dependent effect"},
      {"measurement": "Kd", "setting": "[6]", "value": 73, "unit": "µM"}
    ]},
    {"smiles": "Cc1ccc(Oc2ccc(N)cc2)cc1", "values": [
      {"measurement": "Activity", "setting": "[7]", "value": "Active"},
      {"measurement": "Activity", "setting": "[8]", "value": "Active"},
      {"measurement": "Activity", "setting": "[9]", "value": "Dose-dependent effect"},
      {"measurement": "Activity", "setting": "[10]", "value": "Dose-dependent effect"},
      {"measurement": "ΔTm", "setting": "[11]", "value": 4.5, "unit": "°C"},
      {"measurement": "Activity", "setting": "[12]", "value": "Active"},
      {"measurement": "Kd", "setting": "[4]", "value": 41, "unit": "µM"},
      {"measurement": "IC50", "setting": "[5]", "value": 32, "unit": "µM"},
      {"measurement": "inhibition", "setting": "[5]", "value": "Dose-dependent effect"},
      {"measurement": "ΔTm", "setting": "[13]", "value": 3.1, "unit": "°C"}
    ]},
    {"smiles": "C=CS(=O)(=O)Nc1ccc(C(=O)Nc2ccc3c(c2)CCNC3)cc1", "values": [
      {"measurement": "inhibition", "setting": "[1]", "value": 10.1, "unit": "%"},
      {"measurement": "inhibition", "setting": "[2]", "value": 0.3, "unit": "%"}
    ]},
    {"smiles": "C=CS(=O)(=O)Nc1ccc(Cc2ccccc2)cc1", "values": [
      {"measurement": "inhibition", "setting": "[1]", "value": 92.5, "unit": "%"},
      {"measurement": "inhibition", "setting": "[2]", "value": 59.2, "unit": "%"}
    ]},
    {"smiles": "C=CS(=O)(=O)Nc1ccccc1Oc1ccccc1", "values": [
      {"measurement": "inhibition", "setting": "[1]", "value": 25.2, "unit": "%"},
      {"measurement": "inhibition", "setting": "[2]", "value": -4.1, "unit": "%"}
    ]}
  ]
}
